Legend:
Pythium aphanidermatum = experiment: Azoxystrobin sensitivity of P. aphanidermatum isolates on treated perennial ryegrass turf (percent infected turf area); assay type: in vivo
Method: To enable an assessment of axoxystrobin (strobilurin) resistance of the above isolates, perennial ryegrass (Lolium perenne L.) was grown in 4×4 inch square plastic pots containing sandy soil. Agsorb absorbent clay (extra fine red) was used to anchor the seeds and provide a high level of moisture around the seed to aid germination. The pots were watered using a fog nozzle and covered with paper to reduce evaporation. A fog nozzle was used 3-5 times a day to water the turf pots. When seedlings emerged, the paper cover was removed from the pots to prevent etiolation and watering was reduced to twice daily using a fan nozzle. The pots were maintained for 12-16 days in a glass-house (17-32° C.; 14 h photoperiod) prior to treatment. During this time, the turf was cut twice with electric Black and Decker hand-held clippers.
Pythium aphanidermatum cultures of the isolates summarized in FIG. 1 were maintained on potato dextrose agar (PDA) amended with streptomycin sulfate at 0.05 g/L. Organically grown rye grains (50 g) were hydrated overnight with 40 ml deionized water placed in 250 ml plastic (polyvinyl-chloride) flasks. The flasks were autoclaved twice on successive days for 45 minutes each time. After the berries cooled, ten 1×1 cm agar plugs of P. aphanidermatum were added to each flask. Flasks containing infected rye-berries were incubated in a growth chamber (26° C.; 14 h photoperiod) for seven days to allow the fungi to colonize the rye grains. The fungal-colonized rye grains were then used to inoculate the turf; by placing four berries on the center surface of each pot.
Azoxystrobin treatments were applied in an automated spray cabinet using a flat fan nozzle (8004E) positioned 18 inches over the turf with a spray volume of 3 US gal/1000 sq.ft. To prevent carry over from treatment to treatment, applications were made starting with the lowest concentration and ending with the highest concentration. The spray nozzle was washed once with acetone and twice with deionized water (100 ml/rinse) between treatments. Turf was sprayed with Heritage® (azoxystrobin) at rates of 0.4, 0.133, 0.044, 0.015, 0.005 and 0 oz.Heritage/1000 sq.ft. Following application, the turf was allowed to dry and was transferred to a growth chamber (25-28° C.; 14 h photoperiod) overnight.
Turf was inoculated with fungal-colonized rye-berries one day after application as previously described. All treatments were then randomized and placed in a dew chamber (25-28° C.; 14 h photoperiod) for four days. The turf was moved to a growth room 24 h prior to disease assessment. The percent of Pythium-infected turf area in each pot was assessed five days after inoculation With the exception of isolate 99-150, all the isolates of P. aphanidermatum were sensitive to azoxystrobin (Table1). […] This is the first report of resistance to azoxystrobin of an isolate of the plant pathogenic fungus P. aphanidermatum.
The sensitivity of the resistant isolate 99-150 and sensitive isolate P32R was then confirmed by testing in two separate experiments using rates up to nine times higher than the recommended commercial rate of Heritage® (azoxystrobin): 3.6, 1.2, 0.4, 0.133, 0.044, 0.015, 0.005 and 0 oz/1000 sq.ft.

Plasmopara viticola = experiment: in planta dose response bioassay with azoxystrobin on vine seedlings (EC50, EC95); assay type: in vivo; settings: for EC95: vine seedlings, azoxystrobin rates in ppm (Table 31)
Method: The in planta dose response bioassay was performed on 10 to 14 days old vine seedlings grown in 1.5″ pots. Six rates of azoxystrobin were chosen from preparatory tests, as the most suitable for showing any shifts in sensitivity to azoxystrobin in the dose response bioassay (Table 31).
The azoxystrobin preparation used for all the tests was P53, a technical grade powder with a purity of >97% azoxystrobin. This was kept consistent across all the tests to eliminate any variation caused by differences in chemical purity or physical state. Five seedlings were used per azoxystrobin rate per sample, and 10 seedlings were used for the no azoxystrobin control (sprayed with de-ionised water only).
The chemical was sprayed, with a Devilbiss spray gun at 10 psi, to maximum retention onto the adaxial surface of the 2nd true leaf (test leaf) of each seedling, with care being taken to continuously swirl the solution in the spray gun to prevent local fluctuations in azoxystrobin concentration: The seedlings were then carefully placed in a growth room (Day: 24° C., 60% RH, 4-5000 lux; Night: 17° C., 95% RH; Day length: 16 hours) for 24 hours.
After this time each test leaf was inoculated with the samples I112 and I116b. Both samples had passed through 1 cycle of subculture on 3″ vines since being removed from low temperature storage (FIG. 14). The inoculum from each sample, obtained from the 3″ vines, was diluted to 5,000 sporangia per ml using a dry haemocytometer (Improved Neubayer, depth 0.1 mm, 1/400 mm^2, Hawksley Crystallite, BS 748).
The samples were inoculated, with a Devilbiss spray gun at 10 psi, to maximum retention onto the abaxial surface of the test leaf of each seedling, with the suspension being swirled frequently in the spray gun to keep sporangia from accumulating at the bottom. The test seedlings were incubated in an ambient room for twenty-four hours. The seedlings were then randomised and placed in a growth room (Day: 24° C., 60% RH, 4-5000 lux; Night: 17° C., 95% RH; Day length: 16 hours) for 6 days, before being returned to the ambient room for a further 24 hours to stimulate sporulation.
The seedlings were assessed directly after their removal from the ambient room for the second time. Disease assessment was based on the percentage area of the leaf covered by sporulating lesions and discolouration, and recorded in 5% increments. […] The data was then analysed using the statistical program AGSTAT.

[1] = tested on: P. viticola cytochrome b gene F129 and L129 alleles; experiment: ARMS/Scorpion F129L SNP detection assay (Ct of allele selective primers on plasmid DNA templates); parameters: species or system Plasmopara viticola
Method: In all ARMS/Scorpion F129L SNP detection assays AmpliTaq Gold enzyme (Applied Biosystems) is included in the reaction mixes at 1 unit/25 ul reaction. The reaction mix also contains 1× buffer (10 mM Tris-HCl (pH8.3), 50 mM KCl, 3.5 mM MgCl2, 0.01% gelatine) and 100 uM dNTP's (Amersham Pharmacia Biotech). Amplifications are performed in an ABI 7700 instrument for continuous fluorescence monitoring. The cycling conditions comprise a preliminary cycle of 95° C. for 10 minutes, followed by 50 cycles of 95° C. for 15 seconds and 60° C. for 45 seconds. Fluorescence is monitored during the annealing/extension stage throughout all cycles.
The ARMS primers are validated for use in such analyses by using plasmid DNA, at various concentrations as template. This is performed in order to check the specificity and sensitivity of the primer designs. Partial wild type cytochrome b gene sequence and the corresponding tract containing the F129L mutation amplified from two P. viticola samples has been cloned into the TA pCR2.1 vector (Invitrogen) as described previously in example 11. 150 ul of the bacterial culture, from the 10 transformants from each cloning event picked for Qiagen Biorobot plasmid DNA Preparations (Qiazen) (see example 11), was saved prior to carrying out these preparations and stored at 4° C. Following sequence analysis wild type and mutant plasmid DNA samples that contained no sequence differences from the consensus sequence were noted. The bacterial culture from which these wild type and mutant plasmid DNA sequences originated was picked for plasmid DNA maxipreps (Qiagen) following the manufacturers protocol. The resulting plasmid DNA was quantified and diluted to a concentration of 1 ug/ul (2×10^11 molecules/ul) using sterile double distilled H2O.
The wild type and mutant cyt b plasmid DNA constructs were diluted further to a concentration of 10 pg/ul (or 2×10^6 molecules/ul) in double distilled H2O and used as template to validate the specificity of the ARMS primers. […]

| Compound | sensitivity of isolate to azoxystrobin (percent of Pythium-infected turf area) (Pythium aphanidermatum; P. aphanidermatum isolate 99-150, Heritage 0.005-0.4 oz/1000 sq.ft on turf, assessed five days after inoculation) | sensitivity of isolates to azoxystrobin (percent of Pythium-infected turf area) (Pythium aphanidermatum; all P. aphanidermatum isolates except 99-150, Heritage 0.005-0.4 oz/1000 sq.ft on turf, assessed five days after inoculation) | response of isolate to azoxystrobin (percentage of infected turf) (Pythium aphanidermatum; resistant isolate 99-150, rates up to nine times the recommended commercial rate of Heritage (3.6 oz/1000 sq.ft)) | ED80 values of the sensitive isolates (Pythium aphanidermatum; sensitive P. aphanidermatum isolates, compared with the established baseline distribution) | percentage of infected turf (Pythium aphanidermatum; sensitive isolate P32R, highest rate of Heritage (3.6 oz/1000 sq.ft)) | EC95 (Plasmopara viticola; P. viticola K2075 (sensitive baseline isolate)) | EC95 (Plasmopara viticola; P. viticola isolate 00I112) | EC95 (Plasmopara viticola; P. viticola isolate 00I116B) | sensitivity to azoxystrobin in the in planta dose response bioassay (Plasmopara viticola; P. viticola sample I112, compared with the sensitive baseline isolate) | sensitivity to azoxystrobin in the in planta dose response bioassay (Plasmopara viticola; P. viticola sample I116B, compared with the sensitive baseline isolate) | Mut Ct ([1]; mutant (L129) plasmid template, 2×10^6 molecules/ul) | NTC amplification ([1]; no template (water only) control) | Wt Ct ([1]; wild type (F129) plasmid template, 2×10^6 molecules/ul) |
| --- | --- | --- | --- | --- | --- | --- | --- | --- | --- | --- | --- | --- | --- |
| CO/C=C(/C(=O)OC)c1ccccc1Oc1cc(Oc2ccccc2C#N)ncn1 [azoxystrobin] | resistant | sensitive | did not respond | within the range of ED80 values of the baseline distribution | reduced dramatically | 0.51 | 11.75 | 2.84 | reduced sensitivity | reduced sensitivity |  |  |  |
| Pv129S (DNA GTCCCCAAGGCAAAACATAACCCAT; chemistry not given here) |  |  |  |  |  |  |  |  |  |  | 17.22 | None | 17.0 |

From patent US20050014144A1, “Methods” (priority 2001, published 2005)
